# Source: patent US20050170345A1, “Neuroglobin is up-regulated by and protects neurons from hypoxic-ischemic injury” (priority 2001, published 2005)
# “Also recorded” adds a separate entry of the source. {Fluorescein} = fluorescein label
# Columns and labels:
# Format in all cases: cell-based, mouse
# [1] = tested on: cultured cortical neurons; assay: Cell viability (MTT absorbance, trypan blue exclusion) of ODN-treated cultured cortical neurons
# Protocol: Neuronal cultures were prepared from the cerebral hemispheres of 16-day Charles River CD1 mouse embryos, seeded at 3×10^5 cells per well on 24-well culture dishes precoated with poly-D-lysine, and grown in Eagle's minimal essential medium (GIBCO BRL) with 5% horse serum and 5% fetal bovine serum (Jin et al. (2000) Proc. Natl. Acad. Sci. U.S.A. 97: 10242-10247). Cultures were treated with 10 μM cytosine arabinoside on day 6 and used on day 11, when >95% of cells expressed the neuronal marker, microtubule-associated protein 2. […] Cell viability was assayed by incubating cultures with 5 mg/ml of 3-(4,5-dimethylthiazol-2-yl)-2,5-diphenyl tetrazolium bromide (MTT) at 37° C. for 2 h and measuring absorbance at 570 nm in solubilized cells using a Cytofluor Series 4000 multi-well plate-reader (PerSeptive Biosystems). […]
# (§1) A phosphorothioate antisense ODN labeled with fluorescein at the 5′ end and directed against the initial coding region of the target Ngb mRNA (5′-TCC GGG CGC TCC AT-3′, from nucleotides 90-77, SEQ ID NO:2)was designed based on the mouse Ngb sequence obtained from Genbank (accession number NM 022414). […] Cultures were analyzed by Western blotting and by MTT cell viability assay, and fluorescence microscopy was used to confirm transfection and examine its relationship to cell death, using caspase-3 activation as a marker.
# [2] = tested on: Ngb mRNA; assay: Ngb protein expression in cultured cortical neurons transfected with antisense/sense ODN (Western blot); details: ODN-transfected cortical neurons vs sense-transfected or untransfected control cultures
# Protocol: Cell lysates were prepared as described (Jin et al. (2000) Proc. Natl. Acad. Sci. U.S.A. 97: 10242-10247) and 100-μg protein samples were electrophoresed on 12% SDS-PAGE gels and transferred to polyvinyldifluoridine membranes. Membranes were incubated overnight at 4° C. with a rabbit polyclonal antibody against Ngb (1:2000), which was produced by immunizing with a synthetic peptide corresponding to amino-acids 35-50 (NH2-CLSSPEFLDHIRKVML-COOH, , SEQ ID NO:1) of mouse Ngb, and affinity-purified using a Sulfolink kit (Pierce). A horseradish peroxidase-conjugated anti-rabbit secondary antibody (Santa Cruz Biotechnology) and a chemiluminescence substrate system (NEN) were used to visualize the immunolabeled bands (Id.).
# as §1
# [3] = tested on: 17-20 kDa caspase-3 cleavage product; assay: Caspase-3 cleavage product immunofluorescence in ODN-transfected cortical neurons; details: fluorescence microscopy, hypoxic cortical neurons
# Protocol: Cultures were fixed with 4% paraformaldehyde and incubated over night at 4° C. with one or more of the following primary antibodies: rabbit polyclonal anti-Ngb (1:200), mouse monoclonal anti-NeuN (1:200, Chemicon), and rabbit polyclonal anti-17-20 kDa caspase-3 cleavage product (1:100, New England Biolabs). The secondary antibodies (all 1:200) were fluorescein isothiocyanate-conjugated goat anti-rabbit or anti-mouse IgG (Vector) and rhodamine-conjugated donkey anti-rabbit IgG (Jackson ImmunoResearch). Controls for non-specific binding included omitting primary (FIG. 1C) or secondary antibodies. In addition, in some cultures, nuclei were labeled with 4′,6-diamidino-2-phenylindole (DAPI) or DNA strand breaks were labeled with the Klenow fragment of DNA polymerase I (Roche) followed by rhodamine avidin D (Vector), as described (Jin et al. (1999) J Neurochem 72: 1204-1214). Fluorescence signals were detected with a Nikon E800 epifluorescence microscope using excitation/emission wavelengths of 535/565 nm for rhodamine (red), 470/505 nm for fluorescein isothiocyanate (green) and 360/400 nm for DAPI (blue). Results were recorded with a Magnifire digital color camera (Optronics). […]
# [4] = tested on: cultured cortical neurons; assay: Transfection efficiency of fluorescent ODN in cortical neuron cultures; details: fluorescent Ngb antisense ODN, DAPI counterstain, n=10
# Text: A phosphorothioate antisense ODN labeled with fluorescein at the 5′ end and directed against the initial coding region of the target Ngb mRNA (5′-TCC GGG CGC TCC AT-3′, from nucleotides 90-77, SEQ ID NO:2)was designed based on the mouse Ngb sequence obtained from Genbank (accession number NM 022414). This and a sense sequence (5′-ATG GAG CGC CCG GA-3′, SEQ ID NO:3), from nucleotides 77-90) were synthesized commercially (Operon Technologies) and purified by HPLC. Cultures were transfected with ODNs (1-10 μM) using FuGENE 6 (Roche), beginning 3 h before the onset of hypoxia. Cultures were analyzed by Western blotting and by MTT cell viability assay, and fluorescence microscopy was used to confirm transfection and examine its relationship to cell death, using caspase-3 activation as a marker.
# To begin to investigate the possibility that Ngb protects neurons from hypoxia, cultured neurons were transfected with a phosphorothioate antisense ODN directed against the initial coding region of the target Ngb mRNA (5′-TCC GGG CGC TCC AT-3′, from nucleotides 90-77, SEQ ID NO:4) or with a control sense sequence (5′-ATG GAG CGC CCG GA-3′, from nucleotides 77-90, SEQ ID NO:5), both labeled with fluorescein at the 5′ end. Transfection efficiency, measured in cultures transfected with the fluorescent Ngb antisense ODN and counterstained with DAPI, was 96±1% (n=10). […]
substance,measurement,setting,value
"5′-TCC GGG CGC TCC AT-3′ (antisense TCCGGGCGCTCCAT; DNA, all phosphorothioate, 5' {Fluorescein}, methylation of C not given here) [antisense ODN]",effect on the toxicity of staurosporine or SNP,"[1]; 0.1 μM staurosporine or 200-400 μM SNP, 12 h, 5 μM ODN",no effect
same,viability of cultured neurons exposed to hypoxia,"[1]; 12 h without oxygen, 5 μM ODN added 3 h prior, MTT absorbance or trypan blue exclusion",decrease in the viability
same,Ngb protein expression,[2],reduced; also recorded: decreased Ngb expression
same,transfected cells co-expressing the 17-20 kDa caspase-3 cleavage product,[3],many
same,Transfection efficiency,[4],96±1%
